Here are results for 2 molecules from patent publication US10066270B2, “Methods and kits used in classifying adrenocortical carcinoma” (THE TRANSLATIONAL GENOMICS RESEARCH INSTITUTE, priority 2010, dated 2018).

For series [1], the system named is PTTG1. The series can be described thus: PTTG1 expression in SW-13 ACC cell line, relative to beta-actin. Format: cell-based. An excerpt: FIG. 6 depicts the effect of vorinostat on the ACC cell line SW-13.
Series [2] has as its system PTTG1. Kind of series: PTTG1 expression in H259R ACC cell line, relative to beta-actin. Format: cell-based. The text has this:
FIG. 7 depicts the effect of vorinostat on the ACC cell line H259R.

The test system of a further series is adrenocortical carcinoma. The conditions noted are these: ACC patients; cited from earlier work.

Each structure is given as a SMILES string.

For `O=C(CCCCCCC(=O)Nc1ccccc1)NO` [Vorinostat], the “effect on PTTG1 expression” value in the series with PTTG1 [1] and in the series on PTTG1 [2] was “reduces PTTG1 expression” each time.

Consider `Clc1ccc(C(c2ccccc2Cl)C(Cl)Cl)cc1` (stereo not shown) [mitotane], for which, in the series with adrenocortical carcinoma, the “patients showing a response” value is recorded as “approximately 22%” and the side effects result is given as “severe, dose limiting side effects”.
